Here are results for 6 compounds from US20220152228A1, “COMPOSITIONS AND METHODS FOR RADIOTHERAPY USING CHELATED RADIOTHERAPEUTIC AGENTS AND NON-TARGET TISSUE BLOCKADE” (Washington University, priority 2019, published 2022).

Read-outs that look alike come from different tables or passages of the source. Where only a bound is given, the exact number is not on record here.

How the values of series [1] were obtained:
The animals were maintained for 20 days with food and water and submitted to blood chemistry analysis (Abaxis Vscan 2) at day 1; 7 and 19 d post-treatment. Weight was monitored for each cohort over 20 days. At the end of the study (day 20 post-treatment), animals were sacrificed and whole limbs and kidneys were harvested for gamma counting and histopathological assessments, respectively.
Kidneys were collected 20 days post-treatment and the tissues were fixed in formalin for 72 h then transferred to saline. Tissues were processed by dehydration, paraffin embedding, and sectioning at 4 μm. Adjacent sections were stained with H&E, PAS and Masson's trichrome.

For series [2], the system named is ^223Ra transport through caco-2 monolayers. The series is described as follows: Ion-channel ligand library screen for 223Ra flux through caco-2 monolayers. As to conditions: 20 μM, BL to AP, normalized to treatment-free flux. The class given is cell-based. How it is done:
Caco-2BBe1 (brush border expressing clone of parent Caco-2 line) monolayers, modelling colon tissue, were used. Caco-2 monolayers were utilized for ion-channel ligand library screening (52 compounds) testing epithelial ion-transport activation or blocking of radioactive transfer (see e.g., FIG. 15A). Caco-2 cells were seeded 15 K cells/well in 96 trans-well filter plate and assayed 10 days post-seeding. […] The screening material was sampled at 20 μM per BL well (n=3/molecules).
The monolayers integrity was monitored using a lucifer yellow permeability assay. The fluorescent tracer was loaded in the AP compartment, and fluorescence permeability was read in the BL vial. % Lucifer Yellow Passage (LYp %) was calculated as the percentile ratio of relative Fluorescence Units-535 nm (FU) of the assayed BL over FU of complete transfer in BL well.
Radioactive reading was accomplished sampling AP compartments on Luma plates and reading the dried luminescence using Topcount scintillation counter. […] Averaged drug-assayed measurements (n=3) were normalized to treatment-free flux.

Series [3] in a line: 223Ra organ distribution in mice pre-treated with ion-channel modulator. The series is classed as in vivo, C57/Bl6 mice. How it is done:
Healthy male C57/Bl6 mice were randomized received a combination treatment with intraperitoneal injection of Amiloride (inhibitor, red) or NS-1619 (activator, green) or saline (control, grey) followed by a clinical dose of ^223RaCl2 1 h post-drug administration. Radioactive organ distribution was then measured at 15 min, 1 h and 4 h post ^223Ra treatment. […] Comparing bone uptake, as early as 15 min, osseous absorption is was half for the NS-1619-treated group as compared to the amiloride or the control group.
Male C57Bl/6 aged 10 weeks (n=6 per treated group) were administered intraperitoneally Amiloride (12.5 mg/kg-150 uL 2% v/v DMSO) or NS-1619 (1 mg/kg-150 uL 2% v/v DMSO) or saline 1 h prior ^223RaCl2 i.v. administration (3.7 KBq/100 uL buffer). Animals were kept awake between each injection. 15 min; 1 h and 4 h post ^223Ra administration: blood; spleen; kidney; stomach; duodenum; jejunum; ileum; cecum; colon; muscle; fat and bone tibia were harvested, weighed and gamma counted. Gamma counting was conducting utilizing a Perkin Elmer Wizard2 counter with readings of energies set 150-350 KeV, with 10 min reading for each sample. Standard corresponding to 10% of injected activity were measured as well; allowing for the calculation of % Injected activity (% IA) normalized to tissue weight (% IA/g).

For series [4] the following is noted: aqueous solution, physiological pH, Ba2+ complex; cited from earlier work.
The source holds these as a separate data set.
The test system of the next series is human serum proteins. As to conditions: for activity in early protein fractions (5-15 mL), affinity with proteins: 2 h of incubation in serum proteins.
Series [5] has as its system human duodenal enteroid monolayers. The protocol:
An in vitro patient-derived organoid model of functional gut epithelium was developed by plating human duodenal enteroid monolayers on a permeable trans-well scaffold.
Intestinal cellular models—human duodenal enteroids and caco-2 monolayers—were grown on a trans-well polymeric filter plate divided in a lower and an upper incubation compartments modeling basolateral and apical side of the epithelium, respectively.
Human duodenal enteroids (see e.g., FIG. 13A) were reconstituted and grown from healthy patient-derived cellular crypts tissue samples. Both differentiated (DF) and undifferentiated (UDF) conditions were tested. DF monolayers were induced by removal of Wnt3A and R-spondin factors from the incubation media, as described previously.
DF or UDF duodenal enteroids were set and grown on 24-transwell plates for 2 weeks until cell confluency was reached, leading to closed monolayer membranes. […] Temperature-dependent transport 37° C. versus 4° C. was tested on UDF enteroids (see e.g., FIG. 13B). DF versus UDF enteroids phenotypes transfer were compared, selecting monolayers with similar range of TEER (1200<TEER<1800 D/m) (see e.g., FIG. 13C).

For series [6], the system named is metastatic castration-resistant prostate cancer. As to conditions: mCRPC patients, vs. 11.9 months in control patients; cited from earlier work.
A further series has as its system colon and duodenum. As to conditions: mice, uptake in the intestine.
For series [7] the following is noted: after administration to mice.
Procedure: The whole gastrointestinal tracts from stomach to rectum were rapidly harvested and placed directly on plastic wraps set over autoradiographic phosphor screens for 90 min exposure in the dark. The autoradiographic prints were read on Cyclone Phosphor Imager (Packard), 300 DPI confocal laser stimulation; 16-bit ADC; utilizing FIJI processing with median filter. For FIJI readings of the autoradiographic files, data were converted to 32-bit format utilizing “square and scale n16” plug in. Radioactive signal intensity was translated into dynamic light units (see e.g., FIG. 12A). Signal intensity was plotted over the GI tract length from the stomach (start=0) to the cecum (˜200 mm) comparing various time points (see e.g., FIG. 12B). Results were comprised as well into profiles curves per organ region of interests including: stomach, cecum or the whole intestinal tract (see e.g., FIG. 12C).
The mark [8] stands for this setting: human serum proteins, 37° C., 12 days.

Procedure for colon and duodenum: Animals were fasted and supplemented with Golytely (24 g/350 mL) 2 h prior injections and sacrificed 24 h post administration. Sections (1 cm) of each gastrointestinal region from the duodenum, jejunum, ileum to the colon were rapidly harvested. GI specimen were set onto previously partially solidified OCT gel block, then fully coated with OCT and flash frozen. Gastrointestinal transversal sectioning was conducted utilizing Leica microtome, 10 μm sections. Fresh frozen sections were collected on tape and stored at −20° C.
Gastrointestinal tissue sections were fixed immerging tapes in 10% paraformaldehyde (PFA) for 15 min followed by a washing with PBS 1×. Following fixation, tissues were mounted directly with DAPI and/or TRITC-Phalloidin mounting media under cover slip ready for imaging.
A second fixations was proceeded using 10% PFA and washed with deionized water. Tissues were then reacted using buffer reaction mixtures from Click-iT Plus TUNEL assay. Positive control were conducted, treated similarly with an additional DNAase treatment. Final counterstaining was conducted using Hoechst33342 (1:5000) before mounting taped tissue specimen under cover slip with 30% aqueous glycerol.
For γH2AX staining, tissues were fixed and submitted to blocking serum reagent, 1 h at room temperature. […]
Procedure for human serum proteins: Next, the stability of the complex to serum proteins was determined in vitro, simulating the complex biological environment encountered in vivo.
Alternatively, size exclusion chromatography (SEC) was utilized to identify each species in solution. […] Chelated activity % was measured integrating gamma counts of macropa peak (20 mL) over the sum counts of all collected fractions (0-47 mL) (see e.g., FIG. 3E).

As to `N=C(N)NC(=O)c1nc(Cl)c(N)nc1N` [Amiloride], the “increase in 223Ra bone-homing (whole legs gamma-counted) versus Radium-223 alone” value in [1] (combination treatment, 20 days following treatment, P=0.0283) amounted to 15%. In [1] (day 1 to day 19 post-treatment), the “blood chemistry profile, Radium versus Radium/Amiloride cohorts” value is reported as “no profile difference”. In series [2], the “effect on 223Ra transport through monolayers” value (shortened to “effect”) was “inhibitor”. For the same compound, the “upper GI radioactive uptake (combined % IA of stomach, duodenum, jejunum)” value is recorded as “lower radioactive content” in [3] (15 min p.i.) and “No difference” in series [3] (4 h p.i.). For the same compound, the “223Ra sequestration in bone, times higher versus control or NS-1619” value in series [3] (4 h p.i., modulator i.p. 1 h before 223RaCl2) is recorded as “over 1.5 times”. Further, the “area under the curve of bone uptake versus 223RaCl2 alone” value in series [3] (combination with 223RaCl2, FIG. 17) was “significantly larger”.
Turning to `O=c1[nH]c2cc(C(F)(F)F)ccc2n1-c1cc(C(F)(F)F)ccc1O` [NS-1619], in [2], the “effect” value is given as “activator”. Further, the entries for the “upper GI radioactive uptake (combined % IA of stomach, duodenum, jejunum)” value in series [3] (1 h p.i.) and in [3] (4 h p.i.) were “significantly higher” and “No difference”, respectively.
Consider `O=C([O-])c1cccc(CN2CCOCCOCCN(Cc3cccc(C(=O)[O-])n3)CCOCCOCC2)n1.[Ba+2]` [[(Ba)macropa]], for which the “stability constant (log K′ML,pH7.4)” value in series [4] was 10.74.
Consider `O=C([O-])c1cccc(CN2CCOCCOCCN(Cc3cccc(C(=O)[O-])n3)CCOCCOCC2)n1.[223Ra+2]` [[(^223Ra)macropa]], for which the “fold lower bone uptake than free 223Ra” value (15 min and 24 h p.i., FIG. 4C legend) is reported as 10-25 fold. Further, the “fold lower bone uptake compared to 223RaCl2 in citrate” value (15 min p.i.) worked out at 10 fold. Further, the “fold lower bone uptake compared to 223RaCl2 in citrate” value (24 h p.i.) turned out to be 20 fold. The compound also registered a bone uptake (24 h p.i., macropa study) of 1.6±0.2 % IA/g. Moreover, the excretion route entry (animal models, compared to bare ion (Xofigo)) is on record as “quantitatively excreted via renal filtration”. Where the note is “compared with 223RaCl2”, the “accumulation in the spleen and the gut” value is on record as “prevented accumulation”. Further, the “fold higher signal in equal volume of urine (bladder) than 223RaCl2 group” value (early time point (15 min)) was 300 fold. For the setting “urine samples of chelator-administered group”, the “complex status in urine after excretion (SEC)” value was “intact”. Further, the “activity in early protein fractions (5-15 mL), affinity with proteins” value in the series on human serum proteins is listed as “no registered activity in the early fractions”. For the same compound, in the series on human serum proteins (setting [8]), the “223Ra retained (chelated activity) after serum protein challenge” value is on record as greater than 90% and the “decomplexation after serum protein challenge” value is given as 10%.
In the case of `[Cl][223Ra][Cl]` [^223RaCl2, Radium-223 Dichloride], the “223Ra transport, differentiated versus undifferentiated enteroids” value in [5] (basolateral to lumen compartment, P<0.05) is reported as “superior capacity to transport”. Also, the “transport of radioactivity, 37° C. versus 4° C.” value in series [5] (undifferentiated enteroids, basolateral to apical) is on record as “temperature-dependent active transport”. The compound also came in with a bone uptake (24 h p.i., macropa study) of 22±1 % IA/g and a bone uptake (24 h p.i., macropa-β-alanine study, naive skeletally mature mice) of 9.7±1.66 % IA/g. The splenic uptake (24 h p.i., macropa-β-alanine study) is 5.52+/−2.3 % IA/g. In addition, in series [6], the median survival is given as 14.9 months. Also, the “apoptosis and DNA damage in cells of the colon and duodenum” value in the series on colon and duodenum was “increased cell apoptosis and DNA damage”. In series [7], the “small bowel and stomach accumulation” value is recorded as “observed within minutes”. The “activity in early protein fractions (5-15 mL), affinity with proteins” value with human serum proteins is “no registered activity in the early fractions”.
Regarding `C/C=C(/C)C(=O)O[C@H]1C(C)=C2[C@H]([C@@H]1OC(=O)CCCCCCC)[C@@](C)(OC(C)=O)C[C@H](OC(=O)CCC)[C@@]1(O)[C@H]2OC(=O)[C@@]1(C)O` [thapsigargin], in series [2], the “effect” value is “does not increase transport”.
